In patent US5153211A, “Spiro-tricyclicaromatic succinimide derivatives as inhibitors of aldose reductase” (Alcon Laboratories, Inc., priority 1991, dated 1992):
Like-named read-outs stand apart in the source and are kept apart here.

Assays:
[1] = system: rat lenses in 30 mM xylose culture; assay: rat lens culture assay, 30 mM xylose cataract model; format: cell-based, Sprague-Dawley rats; details: for lens opacification / lens wet weight increase: 7.5×10^-7 M in the culture media, 30 mM xylose, 18 h; for activity at 0.75 µM: Rattus norvegicus, after 18 h 30 mM xylose culture, compound 7.5 × 10^-7 M, % of control contralateral lens
Method: Aldose reductase inhibitor potency may be evaluated in rat lens culture assays where 30 mM of glucose, galactose or xylose can be used in culture to induce a `sugar` cataract. In addition to monitoring lens clarity, certain biochemical radiolabeled markers (e.g., choline --^3 H and ^86 Rb) are employed to measure lens function. See Obazawa, Merola and Kinoshita, Invest. Ophthalmol., 13 (1974) 204 and Jernigan, Kador and Kinoshita, Exp. Eye Res., 32 (1981) 709.
The general procedure is as follows: a) Sprague-Dawley rats of 75-100 g body weight are sacrificed and the lenses removed immediately; b) the contralateral lens of the pair of lenses is employed as untreated control lens; c) the test lens is cultured in TC-199 culture media in the presence of 30 mM xylose, 30 mM xylose plus a selected concentration of test compound or a selected concentration of test compound; d) the contralateral control lens is treated identical to the test lens except no test compound or xylose is included; e) the matched lens pairs are cultured for 18 h in a CO2 incubator; f) the lenses are compared morphologically and weighed. All lenses, control and test groups, are allowed to preincubate for 1 h in respective control media or drug control media prior to transfer to xylose media or xylose-drug media. In those cases where radiolabelled markers are to be measured, the lenses are treated as aforementioned except the radiolabelled marker(s) are added to the culture at four hours before harvesting. Radiolabelled markers include choline --^3 H ([…] available from New England Nuclear), AIBA --^14 C (α-[1-^14 C]-(CH3)2 C(NH2)COOH available from New England Nuclear) and ^86 Rb. The effect of xylose on lens uptake of ^86 Rb, lens uptake of amino acid (AIBA --^14 C) and lens uptake of choline --^3 H and the effectiveness of representative compounds of the present invention to preserve normal lens morphology is reported here.
The effect of 30 mM xylose and 30 mM xylose plus selected concentrations of test compound on radioactivity ratio is expressed as L/M % of control. L/M % of control is defined as the test lens radioactivity divided by culture media radioactivity as a percentage of the control contralateral lens radioactivity to media radioactivity ratio under identical test conditions but always without xylose or test compound in the control. The effect of 30 mM xylose in the culture media gives a reproducible deleterious effect on the lens as measured by the various L/M %. Furthermore, after incubation of the lens in 30 mM xylose in the TC-199 culture media, the lens gains 20% weight (mostly water weight increase based on dry lens weight measurements) and becomes opaque in the cortex of the lens. Each experiment requires 20-40 pairs of lenses to determine the potency of a selected aldose reductase inhibitor.

galactosemic rats = details: per oral, once daily, cited from earlier work
[2] = molecular target: T1, rat lens aldose reductase (Rattus norvegicus, UniProt P07943); assay: inhibition of rat lens aldose reductase; format: biochemical
T1 construct: evaluated against rat lens aldose reductase; from tissue; host or cells: rat lens
Method: *IC50 values are based on inhibition of rat lens aldose reductase.
a) P. F. Kador, L. O. Merola and J. H. Kinoshita, Docum. Ophthal. Proc. Series, 18, 117-124 (1979);
b) P. F. Kador, J. H. Kinoshita, W. H. Tung and L. T. Chylack, Jr., Invest. Ophthalmol. Vis. Sci., 19, 980-982 (1980);
c) P. F. Kador, D. Carper and J. H. Kinoshita, Analytical Biochemistry, 114, 53-58 (1981).
Wherein the assay mixture used in the tests containing 0.1M potassium phosphate buffer, pH 6.2, 0.2 mM nictoinamide adenine dinucleotide phosphate (NADPH), 10 mM D,L-glyceraldehyde, and an appropriate volume of the enzyme preparation, thermostated at 25° C. in the cell compartment of a spectrophotometer. These conditions are identical to those published in references (a), (b) and (c), except that a larger NADPH concentration was employed. […] The control sample contained no added inhibitor. In order to measure aldose reductase inhibition activity, varying concentrations of the inhibitor examples set forth below were added to the standard incubation mixture. The control, containing the enzyme and NADPH, gave a very small, but measurable rate; thus, it served as the blank against which to measure the glyceraldehyde-dependent rate of NADPH oxidation. The tests were conducted with human placental aldose reductase enzyme. The results of the tests are the product of multiple assays. […] A test compound is considered active if it inhibits or reduces human aldose reductase activity at 1×10^-4 M concentration or less. The following list is provided as a representative sample of the biological activity of the spiro-tricyclic derivatives of the present invention.
According to the procedures of Kador, Merola and Kinoshite, Docum. Ophthal. Proc. Series, 18 (1979) 117 and Kador and Sharpless, Biophysical Chemistry, 8 (1978) 81 the inhibition exerted by examples of the present invention where evaluated against rat lens aldose reductase. Otherwise, the inhibitor assay is identical to that employed against human aldose reductase in Example XXVI. Representative rat lens aldose reductase inhibition is presented in terms of the concentration of test compound required to reduce rat lens aldose reductase enzyme activity by 50%. A test compound is considered active if it inhibits or reduces rat lens aldose reductase activity at 1×10^-4 M concentration or less.

[3] = system: chronic streptozotocin-induced rats; details: 8 mg/kg per oral per day; cited from earlier work
[4] = read-out: L/M% = Lens uptake of 86Rb
[5] = read-out: L/M% = Lens uptake of AIBA-14C (amino acid)
[6] = read-out: L/M% = Lens uptake of choline-3H
[7] = based on inhibition of rat lens aldose reductase, read-out: IC50

Structure (SMILES): O=C1NC(=O)C2(N1)c1cc(F)ccc1-c1ccc(F)cc12 [B, Spiro-(2,7-difluoro-9H-fluoren-9,4'-imidazolidine)-2',5'-dione, reference compound]
- lens opacification [1]: prevented
- lens wet weight increase [1]: prevented
- activity at 0.75 µM [1, 4]: 82%
- activity at 0.75 µM [1, 5]: 87%
- activity at 0.75 µM [1, 6]: 105%
- preventing cataract in galactosemic rats (galactosemic rats; 0.4 mg/kg): wholly effective

Structure (SMILES): Cc1cc(F)cc2c1-c1ccc(F)cc1C21NC(=O)NC1=O (centres unmarked) [Compound 11, 2,7-DIFLUORO-4-METHYLSPIRO[9H-FLUORENE-9,4'-IMIDAZOLIDINE]-2',5'-DIONE]
- IC50 [2, 7]: 12.8 nM

Structure (SMILES): COc1cc(F)cc2c1-c1c(F)cc(F)cc1C21NC(=O)NC1=O (centres unmarked) [Compound 28, 2,4,7-TRIFLUORO-5-METHOXYSPIRO[9H-FLUORENE-9,4'-IMIDAZOLIDINE]-2',5'-DIONE]
- IC50 [2, 7]: 11300 nM

Structure (SMILES): COc1cc(F)cc2c1-c1ccc(F)cc1C21NC(=O)NC1=O (centres unmarked) [Compound 16, 2,7-DIFLUORO-4-METHOXYSPIRO[9H-FLUORENE-9,4'-IMIDAZOLIDINE]-2',5'-DIONE]
- IC50 [2, 7]: 9.4 nM

Structure (SMILES): Cc1cc(F)cc2c1-c1ccc(F)cc1C21CC(=O)NC1=O (centres unmarked) [Compound 3, 2,7-DIFLUORO-4-METHYLSPIRO[9H-FLUORENE-9,3'-PYRROLIDINE]-2',5'-DIONE]
- IC50 [2, 7]: 2.8 nM

Structure (SMILES): COc1cc(F)cc2c1-c1ccc(F)cc1C21CC(=O)NC1=O (centres unmarked) [Compound 17, 2,7-DIFLUORO-4-METHOXYSPIRO[9H-FLUORENE-9,3'-PYRROLIDINE]-2',5'-DIONE]
- IC50 [2, 7]: 4.8 nM

Structure (SMILES): O=C1NC(=O)C2(S1)c1cc(F)ccc1-c1ccc(F)cc12 [D, Spiro-(2,7-difluoro-9H-fluoren-9,5'-thiazolidine)-2',4'-dione]
- lens opacification [1]: prevented
- lens wet weight increase [1]: prevented
- activity at 0.75 µM [1, 4]: 83%
- activity at 0.75 µM [1, 5]: 85%
- activity at 0.75 µM [1, 6]: 109%

Structure (SMILES): O=C1NC(=O)C2(N1)c1cc(F)cc(F)c1-c1c(F)cc(F)cc12 [Compound 9, 2,4,5,7-TETRAFLUOROSPIRO[9H-FLUORENE-9,4'-IMIDAZOLIDINE]-2',5'-DIONE]
- IC50 [2, 7]: 12 nM

Structure (SMILES): Cc1ccc2c(n1)-c1c(F)cc(F)cc1C21NC(=O)NC1=O (centres unmarked) [Compound 22, 7,9-DIFLUORO-2-METHYLSPIRO[5H-INDENO[1,2-b]PYRIDIN-5,4'-IMIDAZOLIDINE]-2',5'-DIONE]
- IC50 [2, 7]: 48 nM

Structure (SMILES): CSc1cc(F)cc2c1-c1ccc(F)cc1C21NC(=O)NC1=O (centres unmarked) [Compound 34, 2,7-DIFLUORO-4-METHYLTHIOSPIRO[9H-FLUORENE-9,4'-IMIDAZOLIDINE]-2',5'-DIONE]
- IC50 [2, 7]: 17.5 nM

Structure (SMILES): COc1cc(F)cc2c1-c1c(OC)cc(F)cc1C21NC(=O)NC1=O [2,7-difluoro-4,5-dimethoxyspiro (9H-fluorene-9,4'-imidazolidine)-2',5'-dione]
- IC50 ([2]; based on the inhibition of rat lens aldose reductase, read-out: IC50 value): 7.8 nM

Structure (SMILES): O=C1NC(=O)C2(S1)c1cc(F)cc(F)c1-c1c(F)cc(F)cc12 [Compound 7, 2,4,5,7-TETRAFLUOROSPIRO[9H-FLUORENE-9,5'-THIAZOLIDINE]-2',4'-DIONE]
- IC50 [2, 7]: 17 nM

Structure (SMILES): Cc1cc(F)cc2c1-c1ncc(F)cc1C21NC(=O)NC1=O (centres unmarked) [Compound 43, 3,7-DIFLUORO-9-METHYLSPIRO[5H-INDENO[1,2-b]PYRIDIN-5,4'-IMIDAZOLIDINE]-2',5'-DIONE]
- IC50 [2, 7]: 16.1 nM

Structure (SMILES): O=C1NC(=O)C2(N1)c1ccccc1-c1ccc(F)cc12 (centres unmarked) [Compound A, Spiro-(-2-fluoro-9H-fluoren-9,4'-imidazolidine)-2',5'-dione, reference compound]
- lens opacification [1]: prevented
- lens wet weight increase [1]: prevented
- activity at 0.75 µM [1, 4]: 55%
- activity at 0.75 µM [1, 5]: 50%
- activity at 0.75 µM [1, 6]: 73%
- preventing cataract in galactosemic rats (galactosemic rats; 1.26 mg/kg): wholly effective
- cataract in chronic streptozotocin-induced rats [3]: prevent cataract
- motor nerve conduction velocity in chronic streptozotocin-induced rats [3]: significantly preserve

Structure (SMILES): O=C1NC(=O)C2(S1)c1ccccc1-c1ccc(F)cc12 (centres unmarked) [C, Spiro-(2-fluoro-9H-fluoren-9,5'-thiazolidine)-2',4'-dione]
- lens opacification [1]: prevented
- lens wet weight increase [1]: prevented
- activity at 0.75 µM [1, 4]: 70%
- activity at 0.75 µM [1, 5]: 58%
- activity at 0.75 µM [1, 6]: 77%
